Data on 13 molecules can be found in ChEMBL document CHEMBL3045210, “Inhibition of trans-Cinnamate 4-Hydroxylase by 4-Amino-5-aryl-2,3-dihydro-3H-1,2,4-triazole-3-thiones” (J Pestic Sci, 2005).

Each structure is given as a SMILES string. The source made the active and inactive calls. The rule behind the calls is not given here. A value given as a limit tells only on which side of the number the result lay.

The first assay has as its system Solanum tuberosum. As to the kind of experiment: Induction of accumulation of trans-cinnamic acid in Solanum tuberosum (potato) tubers at 0.02 to 20 ng/disk after 24 hr relative to laminarin. Format: functional.
With `Nn1c(S)nnc1-c1ccccc1`, the “fold change (FC)” value came to 3.

The next assay addresses T1, Trans-cinnamate 4-monooxygenase (Populus kitakamiensis) (UniProt Q43054).
T1 sequence (whole entry): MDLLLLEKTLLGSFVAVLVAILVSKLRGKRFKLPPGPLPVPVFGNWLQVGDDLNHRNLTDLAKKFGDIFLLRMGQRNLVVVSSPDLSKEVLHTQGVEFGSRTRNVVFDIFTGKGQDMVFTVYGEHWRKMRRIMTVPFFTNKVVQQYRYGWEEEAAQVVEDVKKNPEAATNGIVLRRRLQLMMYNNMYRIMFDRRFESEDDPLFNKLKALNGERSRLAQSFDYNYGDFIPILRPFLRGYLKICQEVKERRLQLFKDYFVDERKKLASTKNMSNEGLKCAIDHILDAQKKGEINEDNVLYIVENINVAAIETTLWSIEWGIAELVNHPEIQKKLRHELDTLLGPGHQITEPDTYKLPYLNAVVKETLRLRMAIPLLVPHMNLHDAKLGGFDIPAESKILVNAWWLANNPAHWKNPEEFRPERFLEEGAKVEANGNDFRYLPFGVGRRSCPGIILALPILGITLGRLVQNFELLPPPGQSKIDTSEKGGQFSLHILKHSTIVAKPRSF
In words: Mixed-type inhibition of Populus sieboldii x Populus grandidentata trans-cinnamate 4-hydroxylase by Lineweaver-Burk plot analysis.
Take `Nn1c(S)nnc1-c1ccccc1`: the inhibition result was “Active”.

The target in another assay is T2, Trans-cinnamate 4-monooxygenase (Populus kitakamiensis, UniProt Q43054).
T2 sequence (Q43054 whole entry): T1 sequence (whole entry)
In words: Inhibition of Populus sieboldii x Populus grandidentata trans-cinnamate 4-hydroxylase assessed as p-coumaric acid level.
What is called IC50 is the concentration needed to halve the response being measured. In the case of `Nn1c(-c2cccc(F)c2)n[nH]c1=S`, the IC50 turned out to be 3.9 µM. The same measure, in the same setting: then `Cc1cccc(-c2n[nH]c(=S)n2N)c1`, with 3.6 µM; and `Nn1c(-c2cccnc2)n[nH]c1=S`, with 51 µM; and `Nn1c(S)nnc1-c1ccccc1`, with 0.32 µM.

For the molecule `Nn1c(-c2ccc(Cl)cc2)n[nH]c1=S`, the IC50 was greater than 100 µM.

As for `Nn1c(-c2cccc(Cl)c2)n[nH]c1=S`, the IC50 stood at 5 µM. Same read-out and setting: then `Nn1c(-c2ccncc2)n[nH]c1=S`, with 13 µM; and `Nn1c(-c2cccs2)n[nH]c1=S`, with 45 µM; and `Cc1ccc(-c2n[nH]c(=S)n2N)cc1`, with greater than 100 µM.

Take `Nn1c(-c2ccccn2)n[nH]c1=S`: the IC50 stood at 45 µM. Take `Nn1c(S)nnc1-c1ccco1`: the IC50 was greater than 100 µM.

As for `Nn1c(-c2ccccc2Cl)n[nH]c1=S`, the IC50 was greater than 100 µM. With `Nn1c(-c2ccc(O)cc2)n[nH]c1=S`, the IC50 is greater than 100 µM.
